In patent US20130167838A1, “NASAL FORMULATION” (TEVA BRANDED PHARMACEUTICAL PRODUCTS, INC., priority 2011, published 2013):
Counter-ions that a name gives are not always drawn.

How the values were obtained:
[1] = Stability of active ingredients in ethanol formulations with and without hydrochloric acid, stored at 60° C. for 21 days, HPLC; format: physicochemical; conditions: ethanol formulations with vs without HCl, FIG. 2
Description: Further formulations were prepared containing the active ingredient(s) and ethanol with and without hydrochloric acid in order to test the stability of the active ingredients. The formulations were: Formulation (i): azelastine+BDP, with acid Formulation (ii): BDP without acid Formulation (iii): BDP with acid Formulation (iv): azelastine+BDP, without acid The precise ethanol formulations were as follows: [table] The formulations were stored at 60° C. for 21 days and the amounts of the active ingredients measured at intervals during the test period. The amounts of the active ingredients were measured using HPLC with external standards of azelastine free base and BDP. The results are shown graphically in FIG. 2. […] The BDP with no acid and no azelastine was […]. However, the combination of BDP with both acid and azelastine is […].

[2] = Solubility in an HFA/ethanol formulation; format: physicochemical
From the text: Azelastine has been marketed as the hydrochloride salt, but the problem is that the hydrochloride salt is not soluble in an HFA/ethanol formulation.

Structure (SMILES): CN1CCCC(n2nc(Cc3ccc(Cl)cc3)c3ccccc3c2=O)CC1 (centres unmarked) [azelastine, Azelastine]
- stabilisation of the azelastine by including an acid (amount measured by HPLC) [1]: some additional stabilisation

Structure (SMILES): CN1CCCC(n2nc(Cc3ccc(Cl)cc3)c3ccccc3c2=O)CC1 (centres unmarked) [hydrochloride salt, azelastine hydrochloride]
- solubility in an HFA/ethanol formulation [2]: not soluble
